Assay results published in ChEMBL document CHEMBL4828770, “Structural and Activity Relationships of 6-Sulfonyl-8-Nitrobenzothiazinones as Antitubercular Agents” (J Med Chem, 2021).
Active and inactive are the calls of the source. The calls are words filed in the database; no cut-off is given here.

How the values were obtained:
[1] = test system: Mycobacterium tuberculosis; test: Antimycobacterial activity against Mycobacterium tuberculosis H37Rv ACTT 25618 assessed as inhibition of visible growth incubated for 7 days by micro plate alamar blue assay; assay type: functional; conditions: H37Rv ACTT 25618, 168 h, time 7 day
[2] = biological target: T1, Decaprenylphosphoryl-beta-D-ribose oxidase (Mycobacterium tuberculosis (strain ATCC 25618 / H37Rv)) (UniProt P9WJF1); test: Inhibition of Mycobacterium tuberculosis H37Rv DprE1 assessed as increase in trehalose monomycolates accumulation at 100 x MIC incubated for 24 hrs using [14C]acetate by TLC based metabolic labelling assay
T1 sequence (whole entry): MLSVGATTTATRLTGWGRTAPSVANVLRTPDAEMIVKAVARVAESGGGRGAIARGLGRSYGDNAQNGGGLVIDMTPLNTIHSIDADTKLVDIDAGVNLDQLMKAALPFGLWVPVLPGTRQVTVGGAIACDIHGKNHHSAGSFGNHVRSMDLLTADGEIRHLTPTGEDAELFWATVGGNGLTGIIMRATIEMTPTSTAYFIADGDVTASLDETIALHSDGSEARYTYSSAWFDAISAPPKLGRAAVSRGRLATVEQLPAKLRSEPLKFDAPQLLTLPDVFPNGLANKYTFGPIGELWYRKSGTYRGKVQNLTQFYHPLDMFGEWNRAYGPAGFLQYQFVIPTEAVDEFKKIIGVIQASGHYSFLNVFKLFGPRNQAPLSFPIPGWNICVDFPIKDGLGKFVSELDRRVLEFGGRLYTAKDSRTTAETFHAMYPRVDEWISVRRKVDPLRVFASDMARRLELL

[3] = biological target: T1, Decaprenylphosphoryl-beta-D-ribose oxidase (Mycobacterium tuberculosis (strain ATCC 25618 / H37Rv)); test: Inhibition of Mycobacterium tuberculosis H37Rv DprE1 assessed as increase in trehalose dimycolates accumulation at 100 x MIC incubated for 24 hrs using [14C]acetate by TLC based metabolic labelling assay
[4] = Metabolic stability in human liver microsomes assessed as half life in presence of NADPH by LC/MS analysis; assay type: ADME, Microsome
[5] = biological target: T2, Decaprenylphosphoryl-beta-D-ribose oxidase (Mycobacterium tuberculosis (strain ATCC 25618 / H37Rv), UniProt P9WJF1); test: Inhibition of Mycobacterium tuberculosis recombinant DprE1 expressed in Escherichia coli assessed as formation of resorufin using FPR as substrate by Amplex Red […] coupled assay
T2 sequence (P9WJF1 whole entry): T1 sequence (whole entry)

HepG2 = test: Cytotoxicity against human HepG2 cells assessed as cell viability incubated for 48 hrs by CCK-8 assay; assay type: cell-based; conditions: hepg2, 48 h
[6] = Metabolic stability in human liver microsomes assessed as clearance in presence of NADPH by LC/MS analysis; assay type: ADME, Microsome; conditions: read-out: CLH

Row | Compound | MIC [1] | other results
1 | CN(Cc1cn(C2CCCCC2)nn1)c1nc(=O)c2cc(S(C)(=O)=O)cc([N+](=O)[O-])c2s1 | 0.047 µM | –
2 | Cc1ccc(-n2cc(CN(C)c3nc(=O)c4cc(S(C)(=O)=O)cc([N+](=O)[O-])c4s3)nn2)cc1 | 0.115 µM | –
3 | C[C@H](c1cn(-c2ccccc2)nn1)N(C)c1nc(=O)c2cc(S(C)(=O)=O)cc([N+](=O)[O-])c2s1 | > 4.2 µM | –
4 | CN(Cc1coc(-c2ccc(F)cc2)n1)c1nc(=O)c2cc(S(C)(=O)=O)cc([N+](=O)[O-])c2s1 | 0.031 µM | –
5 | CN(CCN(C)c1nc(=O)c2cc(S(C)(=O)=O)cc([N+](=O)[O-])c2s1)CC1CCCCC1 | 0.148 µM | –
6 | CCN(Cc1cn(-c2ccccc2)nn1)c1nc(=O)c2cc(S(C)(=O)=O)cc([N+](=O)[O-])c2s1 | 0.201 µM | –
7 | CN(Cc1nnc(-c2ccccc2)o1)c1nc(=O)c2cc(S(C)(=O)=O)cc([N+](=O)[O-])c2s1 | 0.03 µM | Activity [2]: Active; Activity [3]: Active; half-life [4]: 45.9 min; IC50 [5]: 2100 nM; Activity (HepG2): Non-Toxic; CLint scaled [6]: 37.8 mL/min/kg
8 | CN(Cc1nnc(-c2cc(F)cc(F)c2)s1)c1nc(=O)c2cc(S(C)(=O)=O)cc([N+](=O)[O-])c2s1 | 0.023 µM | –
9 | CN(Cc1ccccc1)c1nc(=O)c2cc(S(C)(=O)=O)cc([N+](=O)[O-])c2s1 | 0.253 µM | –
10 | CN(Cc1nnc(-c2cccc(F)c2)o1)c1nc(=O)c2cc(S(C)(=O)=O)cc([N+](=O)[O-])c2s1 | 0.049 µM | –
11 | CN(Cc1cn(-c2cccc(C(F)(F)F)c2)nn1)c1nc(=O)c2cc(S(C)(=O)=O)cc([N+](=O)[O-])c2s1 | 0.044 µM | –
12 | CN(Cc1cn(-c2cnoc2)nn1)c1nc(=O)c2cc(S(C)(=O)=O)cc([N+](=O)[O-])c2s1 | 0.065 µM | –
13 | CN(Cc1nnc(-c2ccc(F)cc2F)s1)c1nc(=O)c2cc(S(C)(=O)=O)cc([N+](=O)[O-])c2s1 | 0.023 µM | –
14 | CN(Cc1csc(-c2ccc(F)cc2)n1)c1nc(=O)c2cc(S(C)(=O)=O)cc([N+](=O)[O-])c2s1 | 0.057 µM | –
15 | CN(Cc1coc(-c2ccccc2)n1)c1nc(=O)c2cc(S(C)(=O)=O)cc([N+](=O)[O-])c2s1 | 0.021 µM | half-life [4]: 21 min; IC50 [5]: 940 nM; CLint scaled [6]: 82.7 mL/min/kg
16 | CN(Cc1cn(Cc2ccccc2)nn1)c1nc(=O)c2cc(S(C)(=O)=O)cc([N+](=O)[O-])c2s1 | 0.309 µM | –
17 | CN(Cc1cn(-c2cccc(Br)c2)nn1)c1nc(=O)c2cc(S(C)(=O)=O)cc([N+](=O)[O-])c2s1 | 0.044 µM | –
18 | CN(Cc1csc(-c2cccc(F)c2)n1)c1nc(=O)c2cc(S(C)(=O)=O)cc([N+](=O)[O-])c2s1 | 0.024 µM | –
19 | CC(C)S(=O)(=O)c1cc([N+](=O)[O-])c2sc(N3CCN(CC4CCCCC4)CC3)nc(=O)c2c1 | < 0.001 µM | –
20 | CCS(=O)(=O)c1cc([N+](=O)[O-])c2sc(N3CCN(CC4CCCCC4)CC3)nc(=O)c2c1 | < 0.001 µM | –
21 | CN(Cc1cn(-c2ccc(F)cc2F)nn1)c1nc(=O)c2cc(S(C)(=O)=O)cc([N+](=O)[O-])c2s1 | 0.024 µM | –
22 | CN(Cc1cn(-c2c(F)cccc2F)nn1)c1nc(=O)c2cc(S(C)(=O)=O)cc([N+](=O)[O-])c2s1 | 0.28 µM | –
23 | CN(Cc1cn(-c2cccnc2)nn1)c1nc(=O)c2cc(S(C)(=O)=O)cc([N+](=O)[O-])c2s1 | 0.533 µM | –
24 | CN(Cc1cn(-c2cccc(I)c2)nn1)c1nc(=O)c2cc(S(C)(=O)=O)cc([N+](=O)[O-])c2s1 | 0.055 µM | –
25 | CS(=O)(=O)c1cc([N+](=O)[O-])c2sc(N3CCN(CC4CCCCC4)CC3)nc(=O)c2c1 | – | half-life [4]: 25.8 min; CLint scaled [6]: 89.8 mL/min/kg
26 | CN(Cc1cn(-c2cccc(C#N)c2)nn1)c1nc(=O)c2cc(S(C)(=O)=O)cc([N+](=O)[O-])c2s1 | 0.048 µM | –

Row | Compound | MIC [1] | other results
27 | CN(Cc1cn(-c2cccc(Cl)c2)nn1)c1nc(=O)c2cc(S(C)(=O)=O)cc([N+](=O)[O-])c2s1 | 0.089 µM | –
28 | CN(Cc1coc(C2CCCCC2)n1)c1nc(=O)c2cc(S(C)(=O)=O)cc([N+](=O)[O-])c2s1 | 0.433 µM | –
29 | CN(c1nc(=O)c2cc(S(C)(=O)=O)cc([N+](=O)[O-])c2s1)C1(c2cn(-c3ccccc3)nn2)CC1 | > 4 µM | –
30 | CN(Cc1cn(-c2ccccc2)nn1)c1nc(=O)c2cc(S(C)(=O)=O)cc([N+](=O)[O-])c2s1 | 0.0006 µM | Activity [2]: Active; Activity [3]: Active; half-life [4]: 53.7 min; IC50 [5]: 780 nM; Activity (HepG2): Non-Toxic; CLint scaled [6]: 32.4 mL/min/kg
31 | CN(Cc1cn(-c2ccc(F)cc2)nn1)c1nc(=O)c2cc(S(C)(=O)=O)cc([N+](=O)[O-])c2s1 | 0.024 µM | –
32 | CN(Cc1ccc2c(c1)OCCO2)c1nc(=O)c2cc(S(C)(=O)=O)cc([N+](=O)[O-])c2s1 | 0.066 µM | –
33 | CN(Cc1cn(-c2cc(F)ccc2F)nn1)c1nc(=O)c2cc(S(C)(=O)=O)cc([N+](=O)[O-])c2s1 | 0.011 µM | –
34 | CN(Cc1nnc(-c2ccccc2)s1)c1nc(=O)c2cc(S(C)(=O)=O)cc([N+](=O)[O-])c2s1 | 0.037 µM | half-life [4]: 13.2 min; CLint scaled [6]: 128 mL/min/kg
35 | O=c1nc(N2CCN(CC3CCCCC3)CC2)sc2c([N+](=O)[O-])cc(C(F)(F)F)cc12 [MACOZINONE] | < 0.2 ng/mL | half-life [4]: 76.3 min; CLint scaled [6]: 22.8 mL/min/kg
36 | C[C@@H](c1cn(-c2ccccc2)nn1)N(C)c1nc(=O)c2cc(S(C)(=O)=O)cc([N+](=O)[O-])c2s1 | 0.252 µM | –
37 | CN(Cc1nnc(-c2cc(F)cc(F)c2)o1)c1nc(=O)c2cc(S(C)(=O)=O)cc([N+](=O)[O-])c2s1 | 0.022 µM | –
38 | CN(Cc1nnc(-c2ccc(F)cc2)s1)c1nc(=O)c2cc(S(C)(=O)=O)cc([N+](=O)[O-])c2s1 | 0.047 µM | –
39 | CN(Cc1nnc(-c2ccc(F)c(F)c2)o1)c1nc(=O)c2cc(S(C)(=O)=O)cc([N+](=O)[O-])c2s1 | 0.043 µM | –
40 | CN(Cc1cn(-c2ccc(F)c(F)c2)nn1)c1nc(=O)c2cc(S(C)(=O)=O)cc([N+](=O)[O-])c2s1 | 0.022 µM | –
41 | CN(Cc1nnc(-c2ccc(F)cc2)o1)c1nc(=O)c2cc(S(C)(=O)=O)cc([N+](=O)[O-])c2s1 | 0.061 µM | –
42 | COc1cccc(-n2cc(CN(C)c3nc(=O)c4cc(S(C)(=O)=O)cc([N+](=O)[O-])c4s3)nn2)c1 | 0.199 µM | –
43 | CN(Cc1nnc(-c2cccc(F)c2)s1)c1nc(=O)c2cc(S(C)(=O)=O)cc([N+](=O)[O-])c2s1 | 0.045 µM | –
44 | CN(Cc1cn(-c2cc(F)cc(F)c2)nn1)c1nc(=O)c2cc(S(C)(=O)=O)cc([N+](=O)[O-])c2s1 | 0.022 µM | –
45 | CN(Cc1cn(Cc2cnoc2)nn1)c1nc(=O)c2cc(S(C)(=O)=O)cc([N+](=O)[O-])c2s1 | > 2 µM | –
46 | Cc1cccc(-n2cc(CN(C)c3nc(=O)c4cc(S(C)(=O)=O)cc([N+](=O)[O-])c4s3)nn2)c1 | 0.1 µM | –
47 | CN(Cc1nnc(-c2ccc(F)c(F)c2)s1)c1nc(=O)c2cc(S(C)(=O)=O)cc([N+](=O)[O-])c2s1 | 0.031 µM | –
48 | CN(Cc1csc(-c2ccccc2)n1)c1nc(=O)c2cc(S(C)(=O)=O)cc([N+](=O)[O-])c2s1 | 0.023 µM | half-life [4]: 16.2 min; CLint scaled [6]: 107 mL/min/kg
49 | CN(Cc1nnc(-c2ccc(F)cc2F)o1)c1nc(=O)c2cc(S(C)(=O)=O)cc([N+](=O)[O-])c2s1 | 0.045 µM | –
50 | CN(Cc1cn(-c2ccccc2F)nn1)c1nc(=O)c2cc(S(C)(=O)=O)cc([N+](=O)[O-])c2s1 | 0.031 µM | –
51 | CN(Cc1cn(-c2cccc(F)c2)nn1)c1nc(=O)c2cc(S(C)(=O)=O)cc([N+](=O)[O-])c2s1 | 0.014 µM | –
